Reference: paper PMC8976035, “Pharmacodynamic, pharmacokinetic, and phase 1a study of bisthianostat, a novel histone deacetylase inhibitor, for the treatment of relapsed or refractory multiple myeloma” (Acta Pharmacologica Sinica, 2021)

Assays:
[1] = cited from earlier work
RPMI-8226 xenograft = assay: MM xenograft mouse model, single agent, 18 days; format: in vivo, NOD/SCID mice; settings: for body weight versus control: 18 days treatment
Procedure: (§1) Tumor size was measured every other day using calipers, and tumor volume was calculated with the formula: V = 0.5 (a × b^2), where a is the long diameter of the tumor and b is the short diameter of the tumor. Mice were killed when the tumor reached 2 cm^3 or was ulcerated. Tumor growth was evaluated from the first day of treatment until the end of experiment.

MM.1S xenograft = assay: MM xenograft mouse model, single agent, 18 days; format: in vivo, NOD/SCID mice; settings: for body weight versus control: 18 days treatment
Procedure: as §1

hERG = hERG (Homo sapiens, UniProt Q12809); settings: cited from earlier work
SIRT2 = SIRT2 (Homo sapiens, UniProt Q8IXJ6); assay: non-HDAC enzyme inhibition selectivity; format: biochemical; settings: read-out: Inhibition rate (%) (200 μM)
Syk = Syk (Homo sapiens, UniProt P43405); assay: non-HDAC enzyme inhibition selectivity; settings: read-out: Inhibition rate (%) (200 μM)
DPP4 = DPP4 (Homo sapiens, UniProt P27487); assay: non-HDAC enzyme inhibition selectivity; settings: read-out: Inhibition rate (%) (200 μM)
Braf = Braf (Homo sapiens, UniProt P15056); assay: non-HDAC enzyme inhibition selectivity; settings: read-out: Inhibition rate (%) (200 μM)
SIRT3 = SIRT3 (Homo sapiens, UniProt Q9NTG7); assay: non-HDAC enzyme inhibition selectivity; format: biochemical; settings: read-out: Inhibition rate (%) (200 μM)
AuroraA = AuroraA (Homo sapiens, UniProt O14965); assay: non-HDAC enzyme inhibition selectivity; settings: read-out: Inhibition rate (%) (200 μM)
Caspase3 = molecular target: T1, Caspase3 (Homo sapiens, UniProt P42574); assay: non-HDAC enzyme inhibition selectivity; settings: read-out: Inhibition rate (%) (200 μM)
T1 sequence (P42574 29-175 limits assumed): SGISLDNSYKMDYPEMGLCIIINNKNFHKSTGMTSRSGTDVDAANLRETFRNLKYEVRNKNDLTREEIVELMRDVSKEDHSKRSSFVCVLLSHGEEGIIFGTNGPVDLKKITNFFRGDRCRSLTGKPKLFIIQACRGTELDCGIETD
T1 sequence (P42574 176-277 limits assumed): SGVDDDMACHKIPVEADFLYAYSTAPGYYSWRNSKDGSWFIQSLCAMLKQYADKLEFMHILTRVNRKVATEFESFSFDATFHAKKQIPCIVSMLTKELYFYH

MMP12 = MMP12 (Homo sapiens, UniProt P39900); assay: non-HDAC enzyme inhibition selectivity; settings: read-out: Inhibition rate (%) (200 μM)
[2] = set-up: method as in PMID 19356036; settings: rat and dog; cited from earlier work
HDAC5 = settings: cited from earlier work
SIRT1 = SIRT1 (Homo sapiens, UniProt Q96EB6); assay: non-HDAC enzyme inhibition selectivity; format: biochemical; settings: read-out: Inhibition rate (%) (200 μM)
PTP1B = molecular target: T2, PTP1B (Homo sapiens, UniProt P18031); assay: non-HDAC enzyme inhibition selectivity; settings: read-out: Inhibition rate (%) (200 μM)
T2 sequence (P18031 1-435): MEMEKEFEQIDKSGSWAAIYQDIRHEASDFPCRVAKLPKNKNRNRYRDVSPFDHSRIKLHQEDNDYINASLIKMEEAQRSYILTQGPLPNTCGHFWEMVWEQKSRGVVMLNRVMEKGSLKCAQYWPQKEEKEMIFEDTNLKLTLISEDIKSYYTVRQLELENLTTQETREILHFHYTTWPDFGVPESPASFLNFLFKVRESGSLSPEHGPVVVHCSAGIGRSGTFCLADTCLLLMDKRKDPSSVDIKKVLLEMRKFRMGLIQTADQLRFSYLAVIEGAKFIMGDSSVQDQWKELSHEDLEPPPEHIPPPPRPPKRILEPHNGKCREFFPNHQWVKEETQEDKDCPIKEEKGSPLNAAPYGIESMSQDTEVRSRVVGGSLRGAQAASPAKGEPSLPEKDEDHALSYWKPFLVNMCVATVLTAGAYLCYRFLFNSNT

MM.1S tumor tissues = assay: PD analysis of acetylation in tumor tissue by Western blotting; format: in vivo, NOD/SCID mice; settings: 75 mg·kg^-1·d^-1 bid, 1 h after last dose
Procedure: For PD analysis, mice were killed 1 h after treatment, tumor tissues were collected for WB analysis of acetylated α-tubulin and acetylated histone H3 levels, as before indicated.

PKCepsilon = molecular target: T3, PKCepsilon (Homo sapiens, UniProt Q02156); assay: non-HDAC enzyme inhibition selectivity; settings: read-out: Inhibition rate (%) (200 μM)
T3 sequence (Q02156 1-737): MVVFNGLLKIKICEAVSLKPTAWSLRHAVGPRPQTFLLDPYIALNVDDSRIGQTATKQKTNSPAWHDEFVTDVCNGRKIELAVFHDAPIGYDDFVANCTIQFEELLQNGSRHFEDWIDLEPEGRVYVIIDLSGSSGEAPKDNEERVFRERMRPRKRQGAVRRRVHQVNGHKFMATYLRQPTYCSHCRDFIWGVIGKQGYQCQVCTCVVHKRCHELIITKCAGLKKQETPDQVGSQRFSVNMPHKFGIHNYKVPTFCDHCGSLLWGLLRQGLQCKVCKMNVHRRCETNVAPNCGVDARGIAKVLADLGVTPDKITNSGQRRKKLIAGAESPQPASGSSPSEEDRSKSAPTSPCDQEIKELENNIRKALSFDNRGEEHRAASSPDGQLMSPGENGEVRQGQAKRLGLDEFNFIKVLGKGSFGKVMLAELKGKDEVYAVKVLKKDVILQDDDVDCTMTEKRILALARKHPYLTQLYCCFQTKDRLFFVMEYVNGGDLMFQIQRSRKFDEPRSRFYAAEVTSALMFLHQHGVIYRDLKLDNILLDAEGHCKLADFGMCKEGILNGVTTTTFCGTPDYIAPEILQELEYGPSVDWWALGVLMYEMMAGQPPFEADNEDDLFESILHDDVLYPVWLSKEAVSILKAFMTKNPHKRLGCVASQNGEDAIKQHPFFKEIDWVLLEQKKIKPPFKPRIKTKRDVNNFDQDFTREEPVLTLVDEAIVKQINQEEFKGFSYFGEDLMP

[3] = 75 mg·kg^-1·d^-1 bid, oral, 18 days

hERG, sequence (Q12809 whole entry): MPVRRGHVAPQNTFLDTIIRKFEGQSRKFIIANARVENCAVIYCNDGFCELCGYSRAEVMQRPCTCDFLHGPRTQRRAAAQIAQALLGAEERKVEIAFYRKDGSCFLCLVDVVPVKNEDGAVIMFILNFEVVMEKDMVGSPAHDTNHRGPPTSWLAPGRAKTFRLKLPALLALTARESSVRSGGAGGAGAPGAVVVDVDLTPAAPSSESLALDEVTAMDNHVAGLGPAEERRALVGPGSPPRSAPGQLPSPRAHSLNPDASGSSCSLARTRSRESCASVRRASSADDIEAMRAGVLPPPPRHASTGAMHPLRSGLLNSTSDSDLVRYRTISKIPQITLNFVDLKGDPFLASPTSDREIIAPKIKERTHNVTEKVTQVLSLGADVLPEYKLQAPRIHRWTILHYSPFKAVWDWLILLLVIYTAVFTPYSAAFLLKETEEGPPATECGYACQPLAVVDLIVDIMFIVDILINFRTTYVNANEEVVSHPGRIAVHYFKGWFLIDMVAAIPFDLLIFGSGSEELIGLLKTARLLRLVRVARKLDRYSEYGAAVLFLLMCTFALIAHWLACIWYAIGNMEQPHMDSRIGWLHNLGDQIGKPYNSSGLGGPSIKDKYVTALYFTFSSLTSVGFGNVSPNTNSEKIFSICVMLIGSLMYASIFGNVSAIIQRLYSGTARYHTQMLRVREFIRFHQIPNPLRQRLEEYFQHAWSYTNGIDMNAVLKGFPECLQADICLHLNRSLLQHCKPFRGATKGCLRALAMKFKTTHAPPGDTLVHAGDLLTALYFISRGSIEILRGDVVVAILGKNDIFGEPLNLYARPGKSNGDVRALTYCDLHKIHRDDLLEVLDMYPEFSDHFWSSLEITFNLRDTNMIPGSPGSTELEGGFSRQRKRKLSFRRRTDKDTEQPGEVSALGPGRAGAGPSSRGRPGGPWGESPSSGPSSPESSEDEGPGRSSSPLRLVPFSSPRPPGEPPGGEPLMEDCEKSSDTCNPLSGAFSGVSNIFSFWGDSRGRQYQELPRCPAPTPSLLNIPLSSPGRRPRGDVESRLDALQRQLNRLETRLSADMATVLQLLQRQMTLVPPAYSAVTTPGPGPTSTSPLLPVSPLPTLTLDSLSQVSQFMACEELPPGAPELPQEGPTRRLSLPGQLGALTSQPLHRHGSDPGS
SIRT3, sequence (Q9NTG7 whole entry, species assumed): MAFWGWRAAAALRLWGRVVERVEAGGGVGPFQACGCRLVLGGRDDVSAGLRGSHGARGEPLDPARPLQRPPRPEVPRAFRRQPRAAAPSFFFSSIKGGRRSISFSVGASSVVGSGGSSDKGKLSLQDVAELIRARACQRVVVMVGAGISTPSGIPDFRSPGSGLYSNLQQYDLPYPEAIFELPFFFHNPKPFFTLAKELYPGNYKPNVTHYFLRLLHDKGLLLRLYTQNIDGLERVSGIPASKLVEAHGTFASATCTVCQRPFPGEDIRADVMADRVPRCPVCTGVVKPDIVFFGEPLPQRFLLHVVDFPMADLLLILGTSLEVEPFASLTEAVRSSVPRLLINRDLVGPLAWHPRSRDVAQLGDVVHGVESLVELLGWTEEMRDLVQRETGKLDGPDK
SIRT1, sequence (Q96EB6 whole entry, species assumed): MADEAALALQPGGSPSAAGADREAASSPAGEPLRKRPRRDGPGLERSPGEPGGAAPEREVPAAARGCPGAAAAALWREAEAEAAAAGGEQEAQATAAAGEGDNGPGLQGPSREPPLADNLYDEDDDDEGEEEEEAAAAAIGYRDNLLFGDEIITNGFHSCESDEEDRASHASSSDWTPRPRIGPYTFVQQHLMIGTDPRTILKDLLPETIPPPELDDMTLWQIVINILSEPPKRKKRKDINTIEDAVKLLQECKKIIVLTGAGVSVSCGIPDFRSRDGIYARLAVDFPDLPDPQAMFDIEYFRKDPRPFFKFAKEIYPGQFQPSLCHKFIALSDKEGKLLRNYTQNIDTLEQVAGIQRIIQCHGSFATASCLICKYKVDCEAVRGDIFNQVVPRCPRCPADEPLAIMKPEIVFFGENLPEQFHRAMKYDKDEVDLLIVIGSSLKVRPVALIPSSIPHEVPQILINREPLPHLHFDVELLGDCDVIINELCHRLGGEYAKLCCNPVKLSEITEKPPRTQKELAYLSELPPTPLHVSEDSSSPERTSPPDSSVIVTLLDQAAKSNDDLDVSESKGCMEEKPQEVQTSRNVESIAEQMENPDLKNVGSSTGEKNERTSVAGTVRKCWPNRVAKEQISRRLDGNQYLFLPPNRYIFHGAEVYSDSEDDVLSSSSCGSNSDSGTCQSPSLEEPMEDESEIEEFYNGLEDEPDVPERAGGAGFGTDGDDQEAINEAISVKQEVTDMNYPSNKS
SIRT2, sequence (Q8IXJ6 whole entry, species assumed): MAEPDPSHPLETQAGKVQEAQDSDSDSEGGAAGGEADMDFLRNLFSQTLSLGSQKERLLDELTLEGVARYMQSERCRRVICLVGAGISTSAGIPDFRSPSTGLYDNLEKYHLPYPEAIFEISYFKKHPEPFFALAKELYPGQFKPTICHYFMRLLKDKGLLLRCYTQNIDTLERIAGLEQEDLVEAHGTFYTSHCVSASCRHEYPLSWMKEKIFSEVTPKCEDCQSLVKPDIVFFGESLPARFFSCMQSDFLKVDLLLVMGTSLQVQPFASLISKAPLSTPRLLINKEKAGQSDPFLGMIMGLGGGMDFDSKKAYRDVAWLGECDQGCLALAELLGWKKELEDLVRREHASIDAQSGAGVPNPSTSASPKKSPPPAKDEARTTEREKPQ
Braf, sequence (P15056 whole entry, species assumed): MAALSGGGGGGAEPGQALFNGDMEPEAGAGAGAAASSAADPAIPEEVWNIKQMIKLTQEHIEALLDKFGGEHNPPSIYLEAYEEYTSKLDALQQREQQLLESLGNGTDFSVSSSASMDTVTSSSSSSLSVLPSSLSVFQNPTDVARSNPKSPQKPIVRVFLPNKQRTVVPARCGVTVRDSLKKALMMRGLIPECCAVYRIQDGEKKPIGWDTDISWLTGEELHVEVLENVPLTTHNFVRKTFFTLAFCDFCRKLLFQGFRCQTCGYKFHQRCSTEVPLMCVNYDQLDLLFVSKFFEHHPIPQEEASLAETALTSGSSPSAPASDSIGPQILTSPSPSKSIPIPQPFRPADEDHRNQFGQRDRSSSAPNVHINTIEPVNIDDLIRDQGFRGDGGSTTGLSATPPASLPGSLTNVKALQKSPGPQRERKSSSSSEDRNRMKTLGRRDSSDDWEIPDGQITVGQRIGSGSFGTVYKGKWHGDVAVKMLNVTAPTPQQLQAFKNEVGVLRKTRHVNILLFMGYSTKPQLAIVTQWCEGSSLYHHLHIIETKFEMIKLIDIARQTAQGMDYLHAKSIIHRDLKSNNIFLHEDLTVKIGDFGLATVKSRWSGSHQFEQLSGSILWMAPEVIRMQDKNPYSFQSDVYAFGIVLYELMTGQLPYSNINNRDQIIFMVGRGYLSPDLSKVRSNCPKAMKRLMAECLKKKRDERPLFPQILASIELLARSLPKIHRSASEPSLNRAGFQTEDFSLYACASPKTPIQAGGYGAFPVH
DPP4, sequence (P27487 whole entry, species assumed): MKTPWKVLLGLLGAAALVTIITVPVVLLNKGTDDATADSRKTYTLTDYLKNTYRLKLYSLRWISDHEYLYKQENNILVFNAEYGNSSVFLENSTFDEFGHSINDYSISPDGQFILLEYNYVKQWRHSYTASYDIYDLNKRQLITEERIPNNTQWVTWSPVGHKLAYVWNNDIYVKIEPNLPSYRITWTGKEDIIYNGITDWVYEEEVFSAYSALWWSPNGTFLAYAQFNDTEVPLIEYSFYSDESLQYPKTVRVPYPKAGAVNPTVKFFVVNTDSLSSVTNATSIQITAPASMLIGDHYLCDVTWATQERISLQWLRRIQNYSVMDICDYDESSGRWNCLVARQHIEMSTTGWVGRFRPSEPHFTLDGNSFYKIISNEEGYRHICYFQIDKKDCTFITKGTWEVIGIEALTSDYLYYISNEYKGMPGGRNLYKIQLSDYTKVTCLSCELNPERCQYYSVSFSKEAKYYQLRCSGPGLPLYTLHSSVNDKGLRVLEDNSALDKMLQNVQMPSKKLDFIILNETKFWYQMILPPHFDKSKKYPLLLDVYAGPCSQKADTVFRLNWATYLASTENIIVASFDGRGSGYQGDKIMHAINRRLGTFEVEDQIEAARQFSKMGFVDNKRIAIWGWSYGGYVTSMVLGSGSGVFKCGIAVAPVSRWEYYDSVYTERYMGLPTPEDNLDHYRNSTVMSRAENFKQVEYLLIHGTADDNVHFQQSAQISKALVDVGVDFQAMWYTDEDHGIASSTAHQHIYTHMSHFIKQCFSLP
AuroraA, sequence (O14965 whole entry): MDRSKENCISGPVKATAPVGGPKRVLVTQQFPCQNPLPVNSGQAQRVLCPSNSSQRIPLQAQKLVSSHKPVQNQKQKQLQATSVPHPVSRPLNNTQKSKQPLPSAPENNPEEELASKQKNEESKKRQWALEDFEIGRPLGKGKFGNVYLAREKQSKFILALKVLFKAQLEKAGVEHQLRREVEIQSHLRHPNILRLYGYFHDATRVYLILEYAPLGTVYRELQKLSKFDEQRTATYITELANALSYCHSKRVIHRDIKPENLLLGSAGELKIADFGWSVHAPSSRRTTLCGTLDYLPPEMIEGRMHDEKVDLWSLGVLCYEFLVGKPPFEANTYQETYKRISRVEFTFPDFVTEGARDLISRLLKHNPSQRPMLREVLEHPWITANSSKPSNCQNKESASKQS
MMP12, sequence (P39900 106-470, species assumed): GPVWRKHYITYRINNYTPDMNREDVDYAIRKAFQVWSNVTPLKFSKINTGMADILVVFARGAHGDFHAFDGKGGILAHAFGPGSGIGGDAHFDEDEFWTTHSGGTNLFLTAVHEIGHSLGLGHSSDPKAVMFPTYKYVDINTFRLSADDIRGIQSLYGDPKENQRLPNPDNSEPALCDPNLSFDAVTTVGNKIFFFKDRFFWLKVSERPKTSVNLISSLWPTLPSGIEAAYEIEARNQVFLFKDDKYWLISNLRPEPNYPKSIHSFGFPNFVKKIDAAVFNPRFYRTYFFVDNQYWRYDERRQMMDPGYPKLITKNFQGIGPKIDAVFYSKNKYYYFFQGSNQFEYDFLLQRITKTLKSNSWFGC

O=C(/C=C/c1cccc(S(=O)(=O)Nc2ccccc2)c1)NO [Belinostat]
t1/2 [1]: 1.6 h

CC(C)C[C@H](NC(=O)[C@H](Cc1ccccc1)NC(=O)c1cnccn1)B(O)O [PS341]
body weight versus control (RPMI-8226 xenograft): no significant weight loss
body weight versus control (MM.1S xenograft): no significant weight loss

Cc1[nH]c2ccccc2c1CCNCc1ccc(/C=C/C(=O)NO)cc1 [Panobinostat]
IC50 (hERG; read-out: IC50 for hERG inhibition): 3.1 µM

O=C(CCCCCCC(=O)Nc1ccccc1)NO [SAHA]
inhibition at 200 µM (SIRT2): 43.6 ± 0.8%
inhibition at 200 µM (Syk): 13.7 ± 1.8%
inhibition at 200 µM (DPP4): 11.3 ± 5.4%
inhibition at 200 µM (Braf): 17.6 ± 9.8%
inhibition at 200 µM (SIRT3): 27.8 ± 9.2%
inhibition at 200 µM (AuroraA): 18.8 ± 7.8%
inhibition at 200 µM (Caspase3): 3.9 ± 2.5%
inhibition at 200 µM (MMP12): 61.1 ± 3.3%
elimination half-life [2]: short
oral bioavailability [2]: low
serum clearance [2]: high
inhibition at 200 µM (SIRT1): 7.6 ± 8.8%
inhibition at 200 µM (PTP1B): 9.3 ± 6.2%
acetylated α-tubulin and acetylated histone H3 levels in tumor tissues (MM.1S tumor tissues): significant enhancement
inhibition at 200 µM (PKCepsilon): 0.2 ± 5.7%
T/C (%) (RPMI-8226 xenograft; [3]): 36.37%
body weight versus control (RPMI-8226 xenograft): no significant weight loss
T/C (%) (MM.1S xenograft; [3]): 49.40%
body weight versus control (MM.1S xenograft): no significant weight loss

CCCCc1nc2cc(/C=C/C(=O)NO)ccc2n1CCN(CC)CC [SB939, (2E)-3-{2-butyl-1-[2-(diethylamino)ethyl]-1H-benzimidazol-5-yl}-N-hydroxyacrylamide]
concentration up to which no binding to hERG channels (hERG): > 10 µM
